Entries after “also recorded” stand apart in the source; their conditions may differ.

This is an account of results in patent publication US9309314B2, “Polypeptides, nucleic acids and uses thereof” (AGENCY FOR SCIENCE, TECHNOLOGY AND RESEARCH (A*STAR), priority 2013, dated 2016).

In data set [1] the test system is hESCs. Kind of data set: hESC growth assays (cell counts, colony size, xCELLigence real time cell index). Format: cell-based, human. The following applies: for growth of knockdown hESCs (real-time cell index, xCELLigence): knockdown hESCs versus control hESCs. As to the method: Feeder-free hESCs were cultured in clumps in mTSER1 (Stem Cell Technologies) on Matrigel (BD 354277).
hESCs were dissociated into single cells using Accutase (Stem Cell Technologies) and plated in the presence of 10 μM Y-27632 (ROCK inhibitor) for 12 hours (Watanabe et al., 2007).
For xCELLigence real time growth assays, 4000 cells were plated per well of an E-plate (ACEA Biosciences) with media changes every 48 hours.
(§1) Recombinant ELA was added at 2.5 uM (or 10 μg/ml). Cell cycle studies were performed with Click-iT EDU staining kit (Invitrogen) and by performing a double thymidine block (2.5 mM thymidine; 16 hour block, 8 hour release, 16 hour block) followed by DAPI staining for DNA content at the indicated times following release.

Data set [2] has as its system mesendodermal genes including GATA6, GATA4, FOXA2, EOMES and BRA. Kind of data set: qPCR of mesendodermal markers in hESCs. It is filed as cell-based, human. The procedure: After the indicated time periods, embryoid bodies were harvested and RNA extracted using RNeasy kit […]. qPCR reactions were carried out using either Universal FastStart SYBR Green Mastermix (Roche) or using the Universal Probe Library system (Roche) in tandem with Taqman Fast Mastermix (Invitrogen). Primer sequences can be found in Table E1.

Data set [3] deals with hESCs. Kind of data set: Directed endoderm differentiation of hESCs (SOX17+ cell count). It is filed as cell-based, human. The following applies: immunofluorescence. The procedure:
Shef4TetR5-shELA and Shef4TetR5-shβ2M cells were cultured in the presence (shELA and shβ2M respectively) or absence (Control) of 20 ng/ml doxycycline for 1 passage (4 days) and dissociated with Accutase. […] 24 hours later, the media was changed to Endo differentiation media 1 [RPMI 1640 (Gibco), 1X B-27 supplement (Invitrogen), 50 ng/ml of Activin A (R&D Systems), 25 ng/ml BMP4 (R&D Systems) and 50 ng/ml bFGF (Invitrogen)] for 3 days. On day 3, the media was changed to Endo differentiation media 2 (RPMI 1640, B27, 50 ng/ml Activin) for 2 more days of culture. Rescue experiments were performed by adding 2.5 uM of ELA peptide to Shef4TetR5-shELA concurrently with doxycycline up to day 3, when the ELA peptide is no longer necessary as judged by downregulation of endogenous ELA.
On day 5, cells were fixed with 4% paraformaldehyde and stained with α SOX17 (AF1924, R&D Systems) and DAPI. For each well, three different randomly selected fields were imaged and the number of nuclei staining positive of SOX17 and DAPI were counted using a custom macro in ImageJ. A minimum of two wells per condition was used for each experiment, and a minimum of two independent experiments were performed to generate the results.

Data set [4] relates to pluripotency markers POU5F1, NANOG, SSEA3 and TRA-1-60. The data set can be described thus: Pluripotency markers in ELA-depleted hESCs (immunofluorescence, qPCR). The following applies: prolonged ELA depletion in hESCs. It is filed as cell-based, human. The procedure:
[…]. Neomycin-resistant cells were clonally expanded and assayed for doxycycline (20 ng/ml)-inducible knockdown. Data from one representative clone (Shef4TetR5 shELA) are shown in this paper. Shef4TetR5 shβ2M were derived as previously described (Zafarana et al., 2009). Unless otherwise stated, ELA knockdown was induced on Day −4 with 20 ng/ml doxycycline to generate shELA cells.
Polyclonal antibodies were raised against a human N-terminal epitope (nh2-[…]) (SEQ ID NO: 53), C-terminal epitope ([…]-cooh) (SEQ ID NO: 52) or whole mature ELABELA peptide with an intramolecular cysteine bond (nh2-[…]-cooh) (SEQ ID NO: 2) and peptide-affinity purified from rabbit and goat sera. […] For western blotting and immunofluoresence assays, ELA antibodies were used at 1 μg/mL. All other antibodies are commercially available: TGN-46 (Serotec # AHP500GT); SSEA-3 (Stem Cell Tech #60061AD); TRA-1-60 (BD #560173); SOX17 (R&D # AF1924); POU5F1 (SCBT #sc-5279).

For data set [5], the system named is hESCs. Kind of data set: Teratoma analysis. Format: in vivo. Particulars: 10 million cells subcutaneously into SCID mice, day 60. The procedure: Shef4TetR5-shELA cells were cultured in the presence (shELA) or absence (Control) of 20 ng/ml doxycycline for 3 passages (4 days/passage). Cells were harvested with Accutase (Stemcell Technologies) and resuspended in 1 part Matrigel to 2 parts mTSER1. 10 million cells in 200 μl were injected subcutaneously into the right hind paunches of SCID mice. shELA-injected mice were fed doxycycline (20 μg/ml) for 3 weeks following injection. Mice were sacrificed 60 days post-injection for tumor analysis.

The test system of data set [6] is hESCs. The data set can be described thus: Cell cycle studies (EDU staining, double thymidine block). It is filed as cell-based, human. The following applies: release from double thymidine block. The procedure:
as §1

The test system of data set [7] is hESCs. The data set can be described thus: Apoptosis assay (Annexin V, activated Caspase 3). Format: cell-based, human. As to the method:
Apoptosis assays were performed by plating control and Doxycycline-treated cells without Y-27632 onto matrigel for 6 hours, followed by harvesting and staining for Annexin V and activated Caspase 3.

The test system of another data set is APLNR. Kind of data set: APLNR knockdown (qPCR, flow cytometry). Particulars: FACs.
Another data set has as its system undifferentiated hESCs. The data set can be described thus: AP-ELA binding to undifferentiated hESCs after shRNA-mediated depletion of APLNR. The following applies: Day 0 undifferentiated hESCs.
For data set [8], the system named is hESC-derived mesendoderm cells. Kind of data set: AP-ELA binding to Day 3 mesoendoderm cells after shRNA-mediated depletion of APLNR.
Experimental: (§2) HES3 human embryonic stem cells were transduced with 2TU of lentiviruses and selected with 2 ug/ml puromycin for 2 weeks on feeder free culture system.
Briefly, Shef4 and HES3 hESCs were dissociated with Accutase, and 0.14 million cells were plated into each well of a Matrigel-coated 24 well plate in the presence of 5 μM Y-27632 in mTSER1. The media was changed daily for 4 days with mTSER1 until the cells became 90% confluent. On Day 0, mTSER1 was then replaced with differentiation media [RPMI 1640, B-27 supplement with no insulin (Invitrogen)] with 9 μM of GSK3β inhibitor CHIR99201 (BioVision) for 24 hours. The cells were further grown for 2 days in RPMI+B27 without insulin until Day 3, when they were used for qPCR, flow cytometry and AP-binding assays.
Data set [9] relates to ELA processing and secretion. Kind of data set: Xenopus secretion assay. It is filed as cell-based. The following applies: Xenopus laevis embryos injected with human ELA mRNA; increasing amounts. As to the method:
ZFNs were purchased from Sigma-Aldrich. 250 pg of mRNAs encoding the ZFN pair were injected into 1-cell stage embryos. ZFN binding sites within exon 1 are as follows: 5′_[…] 3′ (SEQ ID NO: 133) and 5′_[…]_3′ (SEQ ID NO: 134). Sequencing primers flanking the mutation sites are: forward 5′_[…]_3′ (SEQ ID NO: 135), reverse 5′[…]_3′ (SEQ ID NO: 136). For ela overexpression, 200 pg of SP6-transcribed zebrafish ela capped mRNA (Applied Biosystems) was injected into 1-cell stage zebrafish embryos. Translation blocking MOs used for aplnra and aplnrb have been described previously (Scott et al., 2007; Zeng et al., 2007) and were purchased from Gene tools (Oregon, USA). Embryos were injected at 1-cell stage with a combination of 1 ng of aplnra MO and 0.5 ng of aplnrb MO (Zeng et al., 2007). Information on probes used for q-PCR and WISH can be found in Tables E1 and E2. Zebrafish embryos at 100% epiboly were dechorionated and processed for western blotting as previously described (Link et al., 2006). For the Xenopus secretion assay, 16 ng of SP6-transcribed human ELA capped mRNA (Applied Biosystems) was injected into each cell of 4-cell stage embryos. At stage 8, embryos were dechorionated and dissociated in CMFM medium with 5 mM EDTA. […]

Experimental for undifferentiated hESCs: as §2

“shELA: doxycycline-inducible shRNA, sequence GTGATTCTCGTGCCTCAAC targeting the 3′UTR of ELA, in Shef4TetR5 hESCs”: the “growth of hESCs by cell numbers” value with hESCs [1] (FIG. 3C, relative to untreated hESCs) was “reduced growth”. Besides, the “growth of hESCs relative to untreated cells” value in the data set on hESCs [1] (hESCs pulsed with peptide, documented by cell counts, colony size and real-time cell indices) is reported as “reduced growth”. Further, the colony size result in the data set with hESCs [1] (knockdown hESC colonies versus control) was “less than half the size; also recorded: twice as small”. In addition, the “growth of knockdown hESCs (real-time cell index, xCELLigence)” value in the data set with hESCs [1] was “markedly reduced growth rates; also recorded: significant growth impairment”. In addition, the “expression of mesendodermal markers” value in data set [2] is on record as “reduced levels; also recorded: conversely downregulated”. In the data set with hESCs [3], the “directed endoderm differentiation (SOX17 expression)” value was “impaired endoderm differentiation; also recorded: markedly impaired”. In addition, the “pluripotency markers and colony morphology” value in [4] is “downregulation of pluripotency markers; also recorded: lose expression of pluripotency markers; also recorded: gradually differentiate and lose pluripotency markers”. Also, in the data set on hESCs [5], the “teratoma / tumor formation” value is reported as “did not form teratomas”. For the same compound, the cell cycle progression entry with hESCs [6] was “not due to the activation of G1/S checkpoint or lengthened G0 residence; also recorded: do not display overt changes in cell cycle progression”. Besides, the apoptosis result with hESCs [7] (FACs, ANNEXIN V and activated CASPASE 3, single cells) was “significantly higher rate; also recorded: rapid apoptosis”. Moreover, the “increase in the number of ANNEXIN V and activated CASPASE 3-positive cells” value with hESCs [7] (compared to control hESCs) is reported as “approximately 40%”.
Consider “shAPLNR: lentiviral shRNA hairpins against APLNR (constructs shAPLNR-1 and shAPLNR-2) (guide 1 ACACGTACCGGGACTATGA; guide 2 CCATCATGCTGACCTGTTA)”, for which the “growth of knockdown hESCs (real-time cell index, xCELLigence)” value with hESCs [1] is “not compromised; also recorded: do not show impaired growth”. The “cell surface APLNR levels” value with APLNR (Day 0 undifferentiated hESCs) is listed as “No changes”; in the data set with APLNR (Day 3 mesoendoderm cells), “significantly reduced cell surface APLNR levels”. Further, the “levels of AP-ELA bound after APLNR depletion” value with undifferentiated hESCs is reported as “could not reduce binding of AP-ELA; also recorded: does not affect”; in [8], “sufficient to significantly diminish the levels of AP-ELA; also recorded: significantly reduced AP-ELA binding”.
Consider `C[C@H]1CCC/C=C/[C@@H]2C[C@H](O)C[C@H]2[C@H](O)/C=C/C(=O)O1` [Brefeldin A], for which the “ELA processing and secretion” value in data set [9] was “able to block ELA processing and secretion; also recorded: blocks ELA processing”.
